According to patent publication US20050118290A1, “Compositions and method for treatment of steroid/nuclear receptor-mediated diseases” (University of Singapore, priority 2003, published 2005):
Values after ≈ are worked out from the molar mass of the structure shown.

What was measured:
Type in all cases: cell-based
human androgen receptor = biological target: T1, human androgen receptor (Homo sapiens, UniProt P10275); experiment: AR (ARE)2-Luc luciferase reporter gene assay in HeLa cells
T1 construct: expressed in transfected cells; host or cells: HeLa
T1 sequence (P10275 1-920): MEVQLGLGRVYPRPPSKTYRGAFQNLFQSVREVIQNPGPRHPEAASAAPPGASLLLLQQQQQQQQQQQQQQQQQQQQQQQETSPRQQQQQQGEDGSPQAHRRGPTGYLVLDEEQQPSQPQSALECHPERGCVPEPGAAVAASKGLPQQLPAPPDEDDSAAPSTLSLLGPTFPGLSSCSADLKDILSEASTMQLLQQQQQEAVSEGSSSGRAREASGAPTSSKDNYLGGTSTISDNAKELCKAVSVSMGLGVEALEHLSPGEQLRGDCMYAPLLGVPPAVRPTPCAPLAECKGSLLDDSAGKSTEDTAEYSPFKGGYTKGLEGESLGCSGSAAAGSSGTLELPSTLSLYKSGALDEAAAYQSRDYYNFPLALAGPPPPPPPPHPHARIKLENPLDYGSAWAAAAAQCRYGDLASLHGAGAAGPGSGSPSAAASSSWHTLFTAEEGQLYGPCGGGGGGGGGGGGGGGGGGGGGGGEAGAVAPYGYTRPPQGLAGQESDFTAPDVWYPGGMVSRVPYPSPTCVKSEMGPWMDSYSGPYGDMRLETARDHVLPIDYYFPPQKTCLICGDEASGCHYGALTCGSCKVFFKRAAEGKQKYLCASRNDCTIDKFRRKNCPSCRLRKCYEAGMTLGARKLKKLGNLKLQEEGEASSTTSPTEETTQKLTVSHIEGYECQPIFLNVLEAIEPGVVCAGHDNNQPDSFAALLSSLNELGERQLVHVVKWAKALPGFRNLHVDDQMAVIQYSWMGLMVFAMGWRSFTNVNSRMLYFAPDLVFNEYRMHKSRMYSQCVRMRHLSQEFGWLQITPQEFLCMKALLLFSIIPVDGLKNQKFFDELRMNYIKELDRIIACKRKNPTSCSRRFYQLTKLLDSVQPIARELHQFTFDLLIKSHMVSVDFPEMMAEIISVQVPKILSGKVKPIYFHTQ
Method: (§1) The capacity of HQ extract to activate other steroid receptors, namely AR, PR, GR, ERα and ERβ was examined. […] The (ARE)2-Luc plasmid consist of two repeats of Androgen Response Element (ARE) cloned upstream of the Luciferase Reporter gene in a pGL3-Basic vector (Promega).
(§2) AR, PR, GR and ERα and […] were determined by comparing luciferase activity in test cells with control cells exposed to vehicle (i.e., ethanol or methanol) only, analogous to the determination of PPAR activity as described in the previous examples.

PPARα = biological target: T2, PPARα (Homo sapiens, UniProt Q07869); experiment: Chimeric Gal4DBD-PPARαLBD receptor / UASg-luciferase reporter gene assay in HeLa cells; settings: with WY14643 30×10^−6M
T2 construct: expressed in transfected cells; host or cells: HeLa
T2 sequence (Q07869 239-466 limits assumed): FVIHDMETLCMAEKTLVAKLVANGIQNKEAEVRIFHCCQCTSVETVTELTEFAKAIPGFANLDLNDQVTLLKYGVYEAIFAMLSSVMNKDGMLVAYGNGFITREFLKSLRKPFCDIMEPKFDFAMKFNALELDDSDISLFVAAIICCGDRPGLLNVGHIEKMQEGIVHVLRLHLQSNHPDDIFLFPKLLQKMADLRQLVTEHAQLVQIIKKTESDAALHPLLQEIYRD
Source text: (§3) In an example of such a reporter gene assay, a plasmid containing chimeric Ga14DBD-PPARLBD receptor cDNA was constructed by excising the ligand binding domain (LBD) of full length PPARγ and PPARα and ligating the resulting fragments in frame to the Ga14-DNA binding domain (DBD) of Saccharomyces cerevisiae in a pM vector (Clontech). Specifically, to construct Ga14DBD-PPARγLBD plasmid, pSG5 expression vector (Stratagene) containing full length PPARγ was excised with Rsa I and blunt ligated to Hind III site of pMGa14DBD expression plasmid (Clontech). To construct Ga14DBD-PPARαLBD plasmid, pSG5 expression vector (Stratagene) containing full length PPARα was excised with BstU I and BamH I and blunt-end ligated in frame to BamH I site of pMGa14DBD expression plasmid (Clontech). […] Ga14 DBD binds very strongly to the exogenous UASg promoter, thereby giving rise to a sensitive and specific assay. To measure PPARγ and PPARα agonist activity, HeLa cells were grown in 24-well microtiter plates and then transiently co-transfected with the two plasmids (chimeric PPAR receptor and UASg reporter gene) using Lipofectamine (Invitrogen). […] Concurrently, cells exposed to known PPAR ligands served as positive controls. Replicate wells, exposed to the vehicle solvent (i.e., ethanol or methanol) in which herbal extracts were dissolved, were used as negative controls. After the 40 hr incubation period, cells were rinsed with phosphate buffered saline (PBS), lysis buffer was added, and cell lysates were collected for measurement of luciferase activity using a luminometer. […] All data points are in triplicate. The data points represent the mean of triplicate wells. Luciferase activity in such an assay accurately reflects the activity of any ligands on PPARγ or PPARα.

Progesterone Receptor = biological target: T3, Progesterone Receptor (Homo sapiens, UniProt P06401); experiment: PR (ARE)2-Luc luciferase reporter gene assay; settings: Example 16; progesterone 100×10^−9M, 10 × 10^−9M (Table 11)
T3 construct: expressed in transfected cells; host or cells: HeLa (named for the formononetin and daidzein experiments)
T3 sequence (P06401 1-933): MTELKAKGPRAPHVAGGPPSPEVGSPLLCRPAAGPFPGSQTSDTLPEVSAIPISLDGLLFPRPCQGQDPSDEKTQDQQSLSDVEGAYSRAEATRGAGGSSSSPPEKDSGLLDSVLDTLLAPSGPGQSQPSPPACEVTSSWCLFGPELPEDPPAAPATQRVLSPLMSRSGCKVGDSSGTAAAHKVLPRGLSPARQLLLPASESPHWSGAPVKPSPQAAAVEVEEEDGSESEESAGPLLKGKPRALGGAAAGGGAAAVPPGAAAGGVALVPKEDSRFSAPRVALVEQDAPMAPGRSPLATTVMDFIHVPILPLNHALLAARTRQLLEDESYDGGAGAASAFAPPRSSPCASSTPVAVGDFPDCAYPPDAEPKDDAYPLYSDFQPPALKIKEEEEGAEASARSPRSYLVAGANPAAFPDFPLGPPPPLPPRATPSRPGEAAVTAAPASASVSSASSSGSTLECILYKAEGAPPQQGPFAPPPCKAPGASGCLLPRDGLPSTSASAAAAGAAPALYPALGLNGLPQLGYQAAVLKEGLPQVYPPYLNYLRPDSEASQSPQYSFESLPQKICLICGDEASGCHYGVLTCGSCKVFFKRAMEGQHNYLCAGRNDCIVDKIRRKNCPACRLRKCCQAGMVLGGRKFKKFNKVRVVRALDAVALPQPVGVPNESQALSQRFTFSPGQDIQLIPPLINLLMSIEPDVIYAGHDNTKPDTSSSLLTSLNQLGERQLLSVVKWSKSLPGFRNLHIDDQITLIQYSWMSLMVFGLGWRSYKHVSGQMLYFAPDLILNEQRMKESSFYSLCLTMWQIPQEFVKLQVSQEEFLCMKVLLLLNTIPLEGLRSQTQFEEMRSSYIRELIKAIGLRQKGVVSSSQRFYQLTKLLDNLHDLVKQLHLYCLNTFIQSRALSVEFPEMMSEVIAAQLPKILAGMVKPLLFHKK
Method: as §1, §2

PPARγ = biological target: T4, PPARγ (Homo sapiens, UniProt P37231); experiment: Chimeric Gal4DBD-PPARγLBD receptor / UASg-luciferase reporter gene assay in HeLa cells
T4 construct: expressed in transfected cells; host or cells: HeLa
T4 sequence (P37231 238-503 limits assumed): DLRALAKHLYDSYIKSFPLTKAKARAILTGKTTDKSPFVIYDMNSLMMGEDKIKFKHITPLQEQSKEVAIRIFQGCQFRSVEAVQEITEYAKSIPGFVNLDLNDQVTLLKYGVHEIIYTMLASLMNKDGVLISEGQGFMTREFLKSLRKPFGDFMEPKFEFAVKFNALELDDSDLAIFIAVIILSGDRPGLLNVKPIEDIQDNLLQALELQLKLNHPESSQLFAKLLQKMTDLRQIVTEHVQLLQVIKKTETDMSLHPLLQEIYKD
Source text: as §3

[1] = GW9662 0.1 ×10^−6M (first line)
[2] = GW9662 0.1 ×10^−6M (second line, r12)

3′,7-Dihydroxy-4′-methoxyisoflavone [calycosin]
increase of the activity of maximal doses of AR agonist (human androgen receptor; with dihydrotestosterone 1×10^−9M): 3 fold | increase of the activity of maximal doses of PPARα agonist (PPARα): 7 fold | increase of the activity of maximal doses of PR agonist (Progesterone Receptor): 3 fold

CCCCC/C=C/C=C1/C(=O)C=C[C@@H]1C/C=C\CCCC(=O)O [Compound 15DPGJ2, 15-deoxy-δ12,14, Prostaglandin J2, reference compound]
EC50 (PPARγ activity) (PPARγ; FIG. 1A, HeLa cells): 0.5 µg/mL (≈ 1.58 µM)

O=C(Nc1ccccc1)c1cc([N+](=O)[O-])ccc1Cl [GW9662, reference compound]
Luciferase activity (% Pioglitazone 30 × 100^−6M ± SE), Piogliltazone (30 × 10^−6M) (PPARγ; [1]): 97 ± 23.8% | Luciferase activity (% Pioglitazone 30 × 100^−6M ± SE), Vehicle (DMSO) (PPARγ; [1]): 13.8 ± 0.207% | Luciferase activity (% Pioglitazone 30 × 100^−6M ± SE), Piogliltazone (30 × 10^−6M) (PPARγ; [2]): 114 ± 5% | Luciferase activity (% Pioglitazone 30 × 100^−6M ± SE), Vehicle (DMSO) (PPARγ; [2]): 13.8 ± 2.28% | Luciferase activity (% Pioglitazone 30 × 100^−6M ± SE), Piogliltazone (30 × 10^−6M) (PPARγ; GW9662 1 ×10^−6M): 77.2 ± 11.4% | Luciferase activity (% Pioglitazone 30 × 100^−6M ± SE), Vehicle (DMSO) (PPARγ; GW9662 1 ×10^−6M): 23.5 ± 2.74% | Luciferase activity (% Pioglitazone 30 × 100^−6M ± SE), Piogliltazone (30 × 10^−6M) (PPARγ; GW9662 10 ×10^−6M): 40.6 ± 12.3% | Luciferase activity (% Pioglitazone 30 × 100^−6M ± SE), Vehicle (DMSO) (PPARγ; GW9662 10 ×10^−6M): 39.3 ± 4.38% | PPARγ activity on its own (PPARγ; Table 12): weak PPARγ agonistic activity | doses that inhibited the PPARγ effects of pioglitazone (PPARγ; with pioglitazone 30 × 10^−6M, dose-dependent): above 1 ×10^−6M

CC1(COc2ccc(CC3SC(=O)NC3=O)cc2)CCCCC1 (stereo not shown) [ciglitazone, reference compound]
Luciferase activity ± SEM (% ciglitazone 10 × 10^−6 M), substance alone (PPARγ; 0.1 ×10^−6 g/mL): 15.4 ± 0.81% | Luciferase activity ± SEM (% ciglitazone 10 × 10^−6 M), substance alone (PPARγ; 0.3 ×10^−6 g/mL): 21.7 ± 1.52% | Luciferase activity ± SEM (% ciglitazone 10 × 10^−6 M), substance alone (PPARγ; 1.0 ×10^−6 g/mL): 55.3 ± 7.99% | Luciferase activity ± SEM (% ciglitazone 10 × 10^−6 M), substance alone (PPARγ; 3.0 ×10^−6 g/mL): 100 ± 6.13% | Luciferase activity ± SEM (% ciglitazone 10 × 10^−6 M), HQ extract + ciglitazone 10 × 10^−6 M (PPARγ; HQ extract 0.0 ×10^−6 g/mL (ciglitazone 10 × 10^−6 M only)): 100 ± 2.91%

O=c1c(-c2ccc(O)cc2)coc2cc(O)cc(O)c12 [genistein]
intrinsic agonistic AR activity (human androgen receptor; 0.1 to 30×10^−6M, no dihydrotestosterone): does not display any intrinsic agohistic AR activity | further increase of the activity of saturating doses of dihydrotestosterone (human androgen receptor; dihydrotestosterone 10×10^−9M, FIG. 2A): 5 fold | effect on the activity of dihydrotestosterone on AR (human androgen receptor; fixed 3×10^−6 M, dihydrotestosterone 0.01 to 10×10^−9M, FIG. 2B): augmented | Luciferase activity (Fold ± SE), PPAR activity at fixed dose (PPARγ; GW9662 0 ×10^−6M, fixed doses: HQ Water extract 8 × 10^−6 g/mL, HQ DCM extract 50 × 10^−6 g/mL, Formononetin, Genistein 10 × 10^−6 M): 7.37 ± 0.128 Fold | Luciferase activity (Fold ± SE), PPAR activity at fixed dose (PPARγ; GW9662 0.3 ×10^−6M, fixed doses): 93.6 ± 2.47 Fold | Luciferase activity (Fold ± SE), PPAR activity at fixed dose (PPARγ; GW9662 1 ×10^−6M, fixed doses): 83.9 ± 4.37 Fold | Luciferase activity (Fold ± SE), PPAR activity at fixed dose (PPARγ; GW9662 3 ×10^−6M, fixed doses): 82.5 ± 2.63 Fold | Luciferase activity (Fold ± SE), PPAR activity at fixed dose (PPARγ; GW9662 10 ×10^−6M, fixed doses): 67.4 ± 1.52 Fold | Luciferase activity (Fold ± SE), PPAR activity at fixed dose (PPARγ; GW9662 30 ×10^−6M, fixed doses): 39.5 ± 0.403 Fold
